# Measurements: US20250108036A1, “COMPOSITIONS FOR REMOVING SENESCENT CELLS AND USES THEREOF” (LIFECEUTIX CO., LTD., priority 2021, published 2025)
# Legend:
# SAOS-2 = test: senescent SAOS-2 tumor size in mice (Example 2-3); format: in vivo, BALB/c nude mice; conditions: doxorubicin 10 mg/kg i.p.; after 10 days LX-112 100 mg/kg oral daily 21 days or repeated doxorubicin
# Method: After 7-week-old male BALB/c nude mice (purchased from KRIBB Laboratory Animal Resource Center) were adapted to the experimental environment for one week, the mice were randomized into an experimental group and a control group. SAOS-2 (10^6 cells), a human osteosarcoma cancer cell line cultured in the same manner as Example 2-1, was mixed with PBS (purchased from Welgene) and then anesthetized using 2% isoflurane (purchased from Sigma). It was administered subcutaneously to mice. When the size of the tumor reached about […], doxorubicin was mixed at a concentration of 10 mg/kg in a 1:1 solution of distilled water and PBS (pH 7.2) and administered intraperitoneally to induce tumor aging. After 10 days, LX-112 mixed with 0.5% CMC-Na solution (purchased from Sigma) at a concentration of 100 mg/kg was orally administered daily for 21 days, and the size of the tumor was measured. The control group was repeatedly administered a solution mixed with doxorubicin, and then the size of the tumor was measured.
# IL6, MCP1 = test: serum IL6 and MCP1 ELISA in naturally aged mice (Example 7-5); format: in vivo, C57BL6J mice; conditions: LX-112 70 mg/kg oral daily 21 days
# Method: (§1) After 22-month-old female C57BL6J mice (purchased from KRIBB Laboratory Animal Resource Center) were adapted to the experimental environment for one week, the aged mice were randomized into an experimental group and a control group. 8-week-old mice that were not aged were used as controls. LX-112 was mixed with 0.5% CMC-Na solution (purchased from Sigma) and administered orally at a concentration of 70 mg/kg daily for 21 days. The control group was administered only the solution in the same volume. After drug administration was completed, the method described in each Example below was performed.
# Serum collected from mice was stored at −80° C. until use. The amounts of IL6 and MCP1, which are aging-related inflammation secretory factors (SASPs), were measured in serum using an enzyme-linked immunosorbent assay (ELISA Kit, purchased from R&D Systems).
# [1] = frailty tests (open field, wire hanging, grip strength, muscle mass) in naturally aged mice (Example 7-7); format: in vivo, C57BL6J mice
# Method: as §1
# To analyze aging-related senescence in mice, activity evaluation (open field test), endurance evaluation (wire hanging test), and muscle strength and grip strength test (grip strength test) were performed. Specifically, in the open field test, the mouse was placed in a white square box and the trajectory it moved for a certain period of time was measured. The measurement results were compared by analyzing the ratio of time spent in the central area to the total time. In the wire hanging test, the time the mouse could endure hanging on a wire was measured. In the muscle strength and grip test (grip strength test), the mouse was made to hold the grip strength measuring device (purchased from Jeongdo B&P) with its front paws by holding its tail, then pulled slightly until it missed, and the force applied to the measuring device just before missing was measured. […] Table 33 calculates the amount of each evaluation after induced aging as 100% and compares it with the amount of each evaluation after treatment with LX-112.
# IL6 = test: serum IL6 ELISA in doxorubicin-aged mice (Example 8-5); format: in vivo, C57BL6J mice; conditions: doxorubicin-aged mice, LX-112 70 mg/kg oral daily 21 days
# Method: (§2) After adapting 8-week-old male C57BL6J mice (purchased from KRIBB Laboratory Animal Resource Center) to the experimental environment for 1 week, doxorubicin, an anticancer drug, was administered intraperitoneally at a concentration of 10 mg/kg, and mice that were induced to age for more than 10 days were assigned to an experimental group and a control group. LX-112 was mixed with 0.5% CMC-Na solution (purchased from Sigma) and administered orally at a concentration of 70 mg/kg daily for 21 days. The control group was administered only the solution in the same volume. After drug administration was completed, the method described in each Example below was performed.
# The amount of IL6, an aging-related inflammation secretory factor (SASP), was measured in serum collected from mice in the same manner as in Example 7-5 using an enzyme-linked immunosorbent assay (ELISA Kit, purchased from R&D Systems).
# IL6, CXCL1, CXCL10, IL1β = test: SASP mRNA qRT-PCR in doxorubicin-aged mice (Example 8-6); format: in vivo, C57BL6J mice; conditions: doxorubicin-aged mice, LX-112 70 mg/kg oral daily 21 days; DOX without LX = 100%
# Method: as §2
# Using cDNA synthesized in the same manner as Example 7-6, qRT-PCR was performed and analyzed for aging-related inflammation and fibrosis secretory factors (SASP) such as IL6, CXCL1, CXCL10, and IL1β. […] Table 45 calculates the mRNA amount of each factor after aging was induced by treatment with the anticancer drug as 100% and compared it with the mRNA amount of each factor after treatment with LX-112.
# [2] = Oil Red O staining of liver of obesity-aged mice (Example 9-5); format: in vivo, C57BL6J mice; conditions: stained area, LX-112 70 mg/kg oral daily 21 days, DIO without LX = 100%
# Method: 15-week-old male C57BL6J mice (purchased from Jackson Laboratories), whose obesity was induced by a high-fat diet, were adapted to the experimental environment for one week, and then the mice were randomized into an experimental group and a control group. LX-112 was mixed with 0.5% CMC-Na solution (purchased from Sigma) and administered orally at a concentration of 70 mg/kg daily for 21 days. The control group was administered only the solution in the same volume. After drug administration was completed, the method described in each Example below was performed. Mice were sacrificed and the weight of adipose tissue in each area was measured.
# Table 60 calculates the stained area of Oil Red O after aging induced by obesity as 100% and compares it with the stained area of Oil Red O after treatment with LX-112.
# HMGB1 = HMGB1 ELISA in culture medium of senescent foreskin cells (Example 10, Table 62); format: cell-based, human
# Method: After 6 hours, the amounts of HMGB1 and HMGN1 secreted into the cell culture medium were measured using an enzyme-linked immunosorbent assay (ELISA Kit, purchased from AssayGenie).
# HMGN1 = HMGN1 ELISA in culture medium of A549 cancer cells (Example 12, Table 66); format: cell-based, human; conditions: Homo sapiens, A549, doxorubicin-induced senescent A549 cells, test compound 30 μM, ELISA, DMSO = 100; read-out: HMGN1 (amount of HMGN1 secreted in the cell culture)
# [3] = LX-112 70 mg/kg oral daily 21 days, aged untreated = 100%
structure (smiles),measurement,setting,value
"O=c1c2ccccc2[se]n1CCn1[se]c2ccccc2c1=O [LX-112, 1,2-[bis(1,2-benzisoselenazolone-3(2H)-ketone)]ethane]",Tumor Diameter (mm),SAOS-2,6.2 (±4.8) mm
same,IL6 (%),"IL6, MCP1",63 (±12.8) %
same,MCP1 (%),"IL6, MCP1",58 (±9.8) %
same,weight of overall fat tissue,[1]; LX-112,increased
same,Grip Sterenght Test Strength (%),[1]; [3],132 (±11) %
same,Open Field Test Time in Center (%),[1]; [3],121 (±9) %
same,Wire Hanging Test Time (%),[1]; [3],119 (±10) %
same,Muscle Mass (g),"[1]; quadriceps and gastrocnemius, LX-112 70 mg/kg oral daily 21 days",0.7 (±0.1) g
same,IL6 (%),IL6,69.8 (±12.2) %
same,"mRNA (%) CXCL1, Liver","IL6, CXCL1, CXCL10, IL1β",68 (±21.1) %
same,"mRNA (%) CXCL1, eWAT","IL6, CXCL1, CXCL10, IL1β",94.8 (±1.2)^ %
same,"mRNA (%) CXCL10, Liver","IL6, CXCL1, CXCL10, IL1β",84 (±11.5) %
same,"mRNA (%) CXCL10, eWAT","IL6, CXCL1, CXCL10, IL1β",74 (±11) %
same,"mRNA (%) IL1β, Liver","IL6, CXCL1, CXCL10, IL1β",42 (±35.2) %
same,"mRNA (%) IL1β, eWAT","IL6, CXCL1, CXCL10, IL1β",38 (±37) %
same,"mRNA (%) IL6, Liver","IL6, CXCL1, CXCL10, IL1β",42 (±23.5) %
same,"mRNA (%) IL6, eWAT","IL6, CXCL1, CXCL10, IL1β",48.6 (±12.5) %
same,Oil Red O (%),[2],74 (±7.3) %
same,HMGB1 (pg/ml),"HMGB1; 10 μM, culture medium after 6 hours, senescent foreskin cells",454.9 (±22.4) pg/ml
same,HMGB1 secreted in the culture medium from dying senescent cells,"HMGB1; ABT-263 1 μM or LX-112 10 μM, 6 hours",little change
COC(=O)c1ccc([C@H]2c3[nH]c4ccccc4c3C[C@H](C(=O)OC)N2C(=O)CCl)cc1 [LX-405],activity at 30 µM,HMGN1,310%
